In test [1] the test system is K562 cells. The conditions noted are these: 24 hours of drug treatment, concentrations as high as 1 μM.
Protocol: K562 cells were plated with a concentration of 100,000 cells/mL in 10 mL complete RPMI media. […] Two sets of four flasks (two flasks per each sample) were prepared and stored in an incubator for 24 hours. Cell number and viability were checked after 24 hours, and cells were washed with complete RPMI media once and prepared for hyperpolarization experiments.
The cell number and the viability were measured using CELLOMETER Mini cell counter (Nexcelom Bioscience); the cell suspension was mixed at 1:1 ratio with the trypan blue solution before the measurement. For each measurement, the cell suspension was diluted to make its concentration within a range of 0.8-2×10^6/mL.
Test [2] deals with LDH-A. The test can be described thus: Western blot of LDH-A phosphorylation in K562 cells after treatment. The class given is cell-based. The conditions noted are these: imatinib treatment, 24 hours. An excerpt:
Imatinib was purchased from Cayman Chemical.
For orientation: Immunoblotting shows a protein as a band on a membrane.

The subject of test [3] is K562 cells. Nature of the test: Lactate concentration (pool size) in cell culture media by conventional high-field NMR spectrometer. The class given is cell-based. The conditions noted are these: 1 μM imatinib. Here is the method:
Each lactate signal was acquired by a conventional high-field NMR spectrometer. All measurements were performed in triplicate. Error bars show the standard deviation.

Structures are written as SMILES.

`Cc1ccc(NC(=O)c2ccc(CN3CCN(C)CC3)cc2)cc1Nc1nccc(-c2cccnc2)n1` [imatinib, Imatinib]: in test [1], the cell viability entry is recorded as “not significantly changed”. Also, in test [2], the “phosphorylation of LDH-A” value is listed as “decreased phosphorylation”. For the same compound, the “time required to make a significant change in the lactate pool size” value in test [3] is reported as “about 12 hours”.
